Reference: patent publication US20190083420A1, “METHODS OF USING (2R, 6R)-HYDROXYN[…] (2S, 6S)-HYDROXYN[…] THE TREATMENT OF DEPRESSION, ANXIETY, ANHEDONIA, FATIGUE, SUICIDAL IDEATION, AND POST TRAUMATIC STRESS DISORDERS” (The Uinited States of America, as represented by the …, priority 2016, published 2019)
Entries after “also recorded” stand apart in the source; their conditions may differ.

Assays:
male CD-1 mice = experiment: Learned helplessness (LH); assay type: in vivo; conditions: single injection
Text: Male CD-1 mice (8-10 weeks old, Charles River Laboratories, Mass., USA) were housed in groups of four-five per cage with a constant 12-hour light/dark cycle (lights on/off at 07:00/19:00). Food and water were available ad libitum. Mice acclimatized to the new environment for seven days prior to the start of the experiments. For the whole-cell NMDA current electrophysiological recordings, male Sprague-Dawley rats (housed three per cage; Charles River, Wilmington, Mass.) were used. EPSC recording were done from rats at postnatal day 24-25. All experimental procedures were approved by the University of Maryland, Baltimore Animal Care and Use Committee and were conducted in full accordance with the National Institutes of Health Guide for the Care and Use of Laboratory Animals.
The LH paradigm consisted of three different phases, i.e., inescapable shock training, LH screening, and the LH test. For the inescapable shock portion of the test (Day 1), the animals were placed in one side of two-chambered shuttle boxes (34 cm height×37 cm width×18 cm depth; Coulbourn Instruments, PA, USA), with the door between the chambers closed. Following a five-min adaptation period, 120 inescapable foot-shocks (0.45 mA, 15 sec duration, randomized average inter-shock interval of 45 sec) were delivered through the grid floor. During the screening session (Day 2), the mice were placed in one of the two chambers of the apparatus for 5 min. A shock (0.45 mA) was then delivered, and the door between the two chambers was raised simultaneously. Crossing over into the second chamber terminated the shock. […] A total of 30 screening trials of escapable shocks were presented to each mouse with an average of 30 sec delay between each trial. Mice that developed helplessness behavior (>5 escape failures during the last 10 screening shocks) were administered with the respective drug 24 hours following screening (Day 3). During the LH test phase (Day 4), the animals were placed in the shuttle boxes and, after a 5-min adaptation period, a 0.45 mA shock was delivered concomitantly with door opening for the first five trials, followed by a 2-sec delay for the next 40 trials. Crossing over to the second chamber terminated the shock. […] A total of 45 trials of escapable shock were presented to each mouse with 30 sec inter-trial intervals. The number of escape failures was recorded for each mouse.

mice = experiment: Accelerating rotarod (motor coordination); assay type: in vivo; conditions: 5-60 min post-injection, i.p.
Method: The rotarod test was conducted to compare the effects of ketamine, (2S,6S)-HNK and (2R,6R)-HNK on motor coordination. The experiment consisted of two phases: training phase (4 days) and a test phase (1 day). On each of the training days five trials (trial time: 3 min) were conducted with an inter-trial interval of two min Mice were individually placed on the rotarod apparatus (HTC Life Science; Woodland Hills, Calif., USA) and the rotor (3.75 inch diameter) accelerated from 5-20 RPM over a period of three minutes. Latency to fall was recorded for each trial. Animals with an average of <100 sec of latency to fall during the last training day were excluded from the experiment. On the test day (day 5), mice received (i.p.) injections of saline, (R,S)-KET (10 mg/kg), (2S,6S)-HNK (25 or 125 mg/kg) or (2R,6R)-HNK (2.5 or 125 mg/kg) and were tested in the rotating rod 5-. 10-, 15-, 20-, 30- and 60-min post-injection using the same procedure described for the training days.

N[C@@]1(c2ccccc2Cl)CCC[C@@H](O)C1=O [(2R,6R)-HNK, (2R,6R)-2-amino-2-(2-chlorophenyl)-6-hydroxycyclohexanone]
doses with antidepressant-like effects in learned helplessness (male CD-1 mice): 5 to 75 mg/kg
antidepressant-like effect in learned helplessness (escape failures) (male CD-1 mice; test 24 hours after administration): greater potency and longer-lasting antidepressant-like effects; also recorded: dose-dependent antidepressant-like responses; also recorded: more potent antidepressant effects; also recorded: dose-dependent antidepressant action
motor coordination in the rotarod (mice): did not affect coordination
